Counter-ions that a name gives are not always drawn.
Target: T1, Apelin receptor (Homo sapiens, UniProt P35414)
T1 sequence (P35414 whole entry): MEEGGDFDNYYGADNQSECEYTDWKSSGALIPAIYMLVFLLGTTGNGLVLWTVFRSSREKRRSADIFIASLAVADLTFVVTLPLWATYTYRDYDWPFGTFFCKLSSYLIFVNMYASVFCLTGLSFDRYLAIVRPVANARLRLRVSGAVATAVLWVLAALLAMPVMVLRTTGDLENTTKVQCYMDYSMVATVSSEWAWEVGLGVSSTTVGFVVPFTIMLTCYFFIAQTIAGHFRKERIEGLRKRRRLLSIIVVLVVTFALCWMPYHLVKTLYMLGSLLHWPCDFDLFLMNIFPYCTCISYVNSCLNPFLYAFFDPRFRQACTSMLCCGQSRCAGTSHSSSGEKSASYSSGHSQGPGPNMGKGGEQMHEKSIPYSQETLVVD
Assay: apelin receptor activators, concentration-response – cell-based, luminescence, uHTS hits, dose response (AID 488748)
Details: not given

| SMILES | EC50 |
| --- | --- |
| CCOc1cccc2sc(N(CCCN(C)C)C(=O)c3ccc(S(=O)(=O)N4CCc5ccccc5C4)cc3)nc12 [4-(3,4-dihydro-1H-isoquinolin-2-ylsulfonyl)-N-[3-(dimethylamino)propyl]-N-(4-ethoxy-1,3-benzothiazol-2-yl)benzamide;hydrochloride] | > 100 µM |
| Cn1ncc2c(ON=C(N)c3ccc(C(C)(C)C)cc3)ncnc21 [4-tert-butyl-N'-(1-methylpyrazolo[3,4-d]pyrimidin-4-yl)oxy-benzamidine] | > 100 µM |
| CCOc1cc2[nH]c(=S)n(CCN3CCC(C)CC3)c(=O)c2cc1OCC [6,7-diethoxy-3-[2-(4-methyl-1-piperidinyl)ethyl]-2-sulfanylidene-1H-quinazolin-4-one] | > 100 µM |
| CC(C)(C)OC(=O)NCCCCCc1cn([C@@H](CO)C(=O)NCCCCCCCCCCC(=O)N2CCN(C(=O)OC(C)(C)C)CC2)nn1 [Boc-KS] | > 100 µM |
| CCCCC1=CC2=CC(=O)C(C)(OC(=O)CC)C(=O)C2=CN1c1ccccc1 (stereo not drawn) [CMLD003542] | > 100 µM |
| CCCc1cc(C(=O)Nc2sc3c(c2C(=O)OCC)CCCC3)no1 [MLS000116384] | > 100 µM |
| CCOc1cc2[nH]c(=S)n(CCN3CCCCC3CC)c(=O)c2cc1OCC (stereo not drawn) [MLS000520831] | > 100 µM |
| CCN1C(c2ccccc2)=C(c2ccccc2)S/C1=C\C=C1/SC(=S)N(C)C1=O [MLS000526292] | 7.9 µM |
| CC1CCN(S(=O)(=O)c2ccc3nc(-c4ccccn4)cc(C(=O)NCCN(C)Cc4ccccc4)c3c2)CC1 [MLS000682486] | > 100 µM |
| C=CCn1c(SCC(=O)N2CCN(c3ccccc3)CC2)nc2c([nH]c3ccccc32)c1=O [MLS001236003] | > 100 µM |
| COc1ccc(OC)c2sc(N(CCCN(C)C)C(=O)c3ccc(S(=O)(=O)N4CCc5ccccc5C4)cc3)nc12 [MLS001239200] | > 100 µM |
| Cc1cc(C)c2sc(N(CCCN(C)C)C(=O)c3ccc(S(=O)(=O)N4CCc5ccccc5C4)cc3)nc2c1 [MLS001239249] | > 100 µM |
| COc1cccc2sc(N(CCCN(C)C)C(=O)c3ccc(S(=O)(=O)N4CCc5ccccc5C4)cc3)nc12 [MLS001239312] | > 100 µM |
| CCc1ccc2nc(N(CCCN(C)C)C(=O)c3ccc(S(=O)(=O)N4CCc5ccccc5C4)cc3)sc2c1 [MLS001239341] | > 100 µM |
| CCOc1cccc2sc(N(CCCN(C)C)C(=O)c3ccc(S(=O)(=O)N(C)Cc4ccccc4)cc3)nc12 [MLS001239362] | > 100 µM |
| COc1ccc2sc(N(CCCN(C)C)C(=O)c3ccc(S(=O)(=O)N4CCc5ccccc5C4)cc3)nc2c1 [MLS001239377] | > 100 µM |
| Cc1ccc2nc(N(CCCN(C)C)C(=O)c3ccc(S(=O)(=O)N4CCc5ccccc5C4)cc3)sc2c1 [MLS001239478] | > 100 µM |
| COc1cccc2sc3ccc(NCCC4CCCN4C)cc3c(=O)c12 (stereo not drawn) [MLS001249993] | > 100 µM |
| NC(=NOS(=O)(=O)c1ccc2ccccc2c1)c1ccncc1 [N'-[(2-naphthylsulfonyl)oxy]-4-pyridinecarboximidamide] | > 100 µM |
| COc1cc2c(cc1NC(=O)c1cc(-c3cccnc3)nc3ccc(C)cc13)oc1ccccc12 [N-(2-methoxydibenzofuran-3-yl)-6-methyl-2-pyridin-3-ylquinoline-4-carboxamide] | > 100 µM |
| CCN(CC)CCNC(=O)c1cc(-c2cccnc2)nc2ccc(S(=O)(=O)N3CCC(C)CC3)cc12 [N-[2-(diethylamino)ethyl]-6-[(4-methyl-1-piperidinyl)sulfonyl]-2-(3-pyridinyl)-4-quinolinecarboxamide] | > 100 µM |
| CC(C)C(=O)N1CCN(c2ccc(NC(=O)COc3ccccc3[N+](=O)[O-])cc2)CC1 [N-[4-(4-isobutyryl-1-piperazinyl)phenyl]-2-(2-nitrophenoxy)acetamide] | > 100 µM |
| CSc1cccc(NC(=S)NC(=O)CCc2ccccc2)c1 [N-[(3-methylsulfanylphenyl)carbamothioyl]-3-phenyl-propanamide] | > 100 µM |
| CCCCNc1c(-c2cccc(-c3ccc(OC)cc3)c2)nc2ccc(C)cn12 [N-butyl-2-[3-(4-methoxyphenyl)phenyl]-6-methylimidazo[1,2-a]pyridin-3-amine;2,2,2-trifluoroacetic acid] | > 100 µM |

| SMILES | EC50 |
| --- | --- |
| CCOc1ccc2nc(O)c(CN(CCO)C(c3nnnn3C3CCCCC3)C(C)C)cc2c1 (stereo not drawn) [SMR000004541] | > 100 µM |
| CCOc1cc2[nH]c(=S)n(CC3CCCN3CC)c(=O)c2cc1OCC (stereo not drawn) [SMR000030998] | > 100 µM |
| CCSc1nc(O)c(CC)c(=O)n1C(C)CC (stereo not drawn) [SMR000103074] | > 100 µM |
| COc1ccc2[nH]c(=O)c(CN(Cc3ccco3)C(c3nnnn3Cc3ccccc3)C(C)C)cc2c1 (stereo not drawn) [SMR000123514] | > 100 µM |
| CC1=NOC(=O)/C1=C\c1ccc(-c2cc(Cl)ccc2Cl)o1 [SMR000141784] | > 100 µM |
| O=c1oc2cc(OCc3ccc([N+](=O)[O-])cc3)ccc2c2c1CCCC2 [SMR000176214] | > 100 µM |
| COc1cc2c(cc1NC(=O)c1cccc([N+](=O)[O-])c1)oc1ccccc12 [SMR000187222] | > 100 µM |
| Cc1ccc(C=NNC(=O)CSc2nnc(-c3ccccc3)n2-c2ccc(Cl)cc2)o1 [SMR000217660] | > 100 µM |
| Cc1ccc(C=NNC(=O)CSc2nnc(-c3ccc(Cl)cc3)n2-c2ccccc2)o1 [SMR000218122] | > 100 µM |
| Cc1ccc2nc(NNC(=O)c3ccc(S(=O)(=O)N4CCc5ccccc5C4)cc3)sc2c1 [SMR000235768] | > 100 µM |
| CC1(OC(=O)C2CCCC2)C(=O)C=C2C=C(c3ccsc3)N(C3CCCC3)C=C2C1=O (stereo not drawn) [SMR000452667] | > 100 µM |
| O=C(Cn1ncc2c([nH]c3ccccc32)c1=O)Nc1ccc(CN2CCCCC2)cc1 [SMR000629297] | > 100 µM |
| CC1CCN(S(=O)(=O)c2ccc3nc(N4CCN(c5ccccc5)CC4)ccc3c2)CC1 [SMR000630335] | > 100 µM |
| COc1cc(NC(=S)NC(=O)CCc2ccccc2)cc(OC)c1 [SMR000668635] | > 100 µM |
| CN(C)CCCN(C(=O)c1ccc(S(=O)(=O)N2CCc3ccccc3C2)cc1)c1nc2ccc(F)cc2s1 [SMR000807789] | > 100 µM |
| Cc1cccc2sc(N(CCCN(C)C)C(=O)c3ccc(S(=O)(=O)N4CCc5ccccc5C4)cc3)nc12 [SMR000807812] | > 100 µM |
| CN(C)CCCN(C(=O)c1ccc(S(=O)(=O)N2CCc3ccccc3C2)cc1)c1nc2c(F)cccc2s1 [SMR000807825] | > 100 µM |
| CN(C)CCCN(C(=O)c1cc2cc([N+](=O)[O-])ccc2s1)c1nc2cc3c(cc2s1)OCCO3 [SMR000807865] | > 100 µM |
| COC(=O)CCCC1=CC2=CC(=O)C(C)(OC(=O)c3cccs3)C(=O)C2=CN1C1CCCCC1 (stereo not drawn) [[2-cyclohexyl-3-(4-methoxy-4-oxobutyl)-7-methyl-6,8-dioxoisoquinolin-7-yl] thiophene-2-carboxylate] | > 100 µM |
| CCCCC1=CC2=CC(=O)C(C)(OC(=O)C3CCCC3)C(=O)C2=CO1 (stereo not drawn) [cyclopentanecarboxylic acid (3-butyl-7-methyl-6,8-dioxo-2-benzopyran-7-yl) ester] | > 100 µM |
| CCOC(=O)N1CCN(S(=O)(=O)c2ccc(C(=O)N(CCCN(C)C)c3nc4ccc(Cl)cc4s3)cc2)CC1 [ethyl 4-[4-[(6-chloranyl-1,3-benzothiazol-2-yl)-[3-(dimethylamino)propyl]carbamoyl]phenyl]sulfonylpiperazine-1-carboxylate;hydrochloride] | > 100 µM |
| CCOC(=O)C1C(Cn2cnc3ccccc32)=NC(=O)NC1c1cc(C)ccc1C (stereo not drawn) [ethyl 6-(benzimidazol-1-ylmethyl)-4-(2,5-dimethylphenyl)-2-oxidanylidene-3,4-dihydro-1H-pyrimidine-5-carboxylate] | > 100 µM |
| COC(=O)C1C(Cn2cnc3ccccc32)=NC(=O)NC1c1cc(C)ccc1C (stereo not drawn) [methyl 6-(benzimidazol-1-ylmethyl)-4-(2,5-dimethylphenyl)-2-oxo-3,4-dihydro-1H-pyrimidine-5-carboxylate] | > 100 µM |

Same assay, conditions: inactive by the depositor's call

| SMILES | EC50 |
| --- | --- |
| CCc1nnc(NC(=O)CSc2nc3cccnc3n2C2CCCCC2)s1 [MLS000073979] | 45.9 µM |

From BindingDB's records for doi:10.7270/Q2NV9GP9 (Burnham Center For Chemical Genomics, 2010)
